This is an account of results in ChEMBL document CHEMBL1151490, “Inhibition of farnesyl protein transferase by new farnesyl phosphonate derivatives of phenylalanine” (Bioorg Med Chem Lett, 1996).

One experiment deals with T1, Squalene synthase (Rattus norvegicus, UniProt Q02769).
T1 sequence (Q02769 whole entry): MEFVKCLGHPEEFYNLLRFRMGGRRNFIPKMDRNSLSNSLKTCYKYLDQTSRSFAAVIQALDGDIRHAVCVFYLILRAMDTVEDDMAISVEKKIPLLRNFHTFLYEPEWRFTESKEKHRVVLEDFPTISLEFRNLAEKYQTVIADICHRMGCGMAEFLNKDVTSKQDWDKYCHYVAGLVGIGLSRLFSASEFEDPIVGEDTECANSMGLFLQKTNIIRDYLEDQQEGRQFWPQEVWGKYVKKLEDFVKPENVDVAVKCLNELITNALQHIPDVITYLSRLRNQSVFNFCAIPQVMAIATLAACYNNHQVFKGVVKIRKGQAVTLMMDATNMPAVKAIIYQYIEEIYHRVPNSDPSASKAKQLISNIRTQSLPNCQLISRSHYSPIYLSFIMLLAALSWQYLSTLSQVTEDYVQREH
Kind of experiment: Inhibition of squalene synthase from rat liver microsomes. A general note: Liver microsomes are vesicles of endoplasmic reticulum, rich in cytochrome P450 enzymes.

Experiment [1] has as its target T2, Protein farnesyltransferase (Bos taurus, UniProt P29702+P49355). Description: Inhibition of farnesyl protein transferase from bovine brain.
Experiment [2] has as its target T2, Protein farnesyltransferase. Description: Inhibition of Farnesyltransferase from bovine brain.

For `CC(C)=CCC/C(C)=C/CC/C(C)=C/CC(C(=O)N[C@@H](Cc1ccccc1)C(=O)O)P(=O)(O)O` (some centres undefined), the IC50 (commonly the midpoint of a concentration-inhibition curve) against Squalene synthase turned out to be 1300 nM; in experiment [1], 80 nM.

For `CC(C)=CCC/C(C)=C/CC/C(C)=C/CC(C(=O)NCCc1ccccc1)P(=O)(O)O` (centres undefined), the IC50 on Squalene synthase was determined as 480 nM; in experiment [1] it was 13000 nM.

For the molecule `COC(=O)[C@H](Cc1ccccc1)NC(=O)C(C/C=C(\C)CC/C=C(\C)CCC=C(C)C)P(=O)(O)O` (some centres undefined), the results for the IC50 (at Squalene synthase; in experiment [1]) were 1400 nM and more than 100000 nM, respectively.

Consider `CC(C)=CCC/C(C)=C/CC/C(C)=C/CC(C(=O)N[C@H](Cc1ccccc1)C(=O)O)P(=O)(O)O` (some centres undefined), for which the IC50 against Squalene synthase came out at 500 nM; in experiment [1] it was 980 nM.

In experiment [2], `CC(C)=CCC/C(C)=C/CCCC(P(=O)(O)O)P(=O)(O)O` [SQ-34919] displayed an IC50 of 80000 nM.

Regarding `CC(C)=CCC/C(C)=C/CC/C(C)=C/CC(C(=O)O)C(=O)NC(Cc1ccccc1)C(=O)O` (centres undefined), the values for the IC50 (against Squalene synthase; in experiment [1]) were 2400 nM and 37000 nM, respectively.

Regarding `CC(C)=CCC/C(C)=C/CC/C(C)=C/C(O)P(=O)(O)O` (centres undefined), the IC50 worked out at 2300 nM against Squalene synthase and 410 nM in experiment [1].

For `CC(C)=CCC/C(C)=C/CC/C(C)=C/CC(CC(=O)N[C@@H](Cc1ccccc1)C(=O)O)P(=O)(O)O` (some centres undefined), the IC50 against Squalene synthase stood at 220 nM; in experiment [1], 470 nM.

Take `CC(C)=CCC/C(C)=C/CC/C(C)=C/CC(CP(=O)(O)O)C(=O)N[C@@H](Cc1ccccc1)C(=O)O` (some centres undefined): the IC50 against Squalene synthase stood at 90 nM; in experiment [1], 170 nM.

Consider `CC(C)=CCC/C(C)=C/CC/C(C)=C/CC(CCP(=O)(O)O)C(=O)N[C@@H](Cc1ccccc1)C(=O)O` (some centres undefined), for which the IC50 turned out to be 4200 nM at Squalene synthase and 10000 nM in experiment [1].
